Reference: patent US20170112792A1, “ENHANCED ATRA-RELATED COMPOUNDS DERIVED FROM STRUCTURE-ACTIVITY RELATIONSHIPS AND MODELING FOR INHIBITING PIN1” (Beth Israel Deaconess Medical Center, Inc., priority 2014, published 2017)
“Also recorded” adds a separate entry of the source. Values belong to the compound of their own block, whether it stands above or below them. Non-standard residues stand in square brackets, D forms with d. No end group written: not given here. d(pT) = C[C@H](OP(=O)(O)O)[C@@H](N)C(=O)O; Pip = O=C(O)[C@@H]1CCCCN1

Legend:
[1] = target: T1, GST-Pin1 (Homo sapiens, UniProt Q13526); assay: fluorescence polarization (FP) pTide competition assay / FP-HTS
From the text: This sequence was optimized for solubility and binding to GST-PPI. […] Measurements of fluorescence polarization and fluorescence absorbance were made in black 384-well plates (Corning) using a Synergy II plate reader. Compounds were transferred to plates using a custom-built Seiko pin-transfer robot at the Institute for Chemistry and Cell Biology at Harvard Medical School. The assay can tolerate up to 10%/o DMSO.
Molecules that compete with pTide for binding to the active site, e.g., Pin1 substrates, were detected under equilibrium conditions. A Z score was used to identify and rank those molecules that were most competitive with pTide (e.g., that have higher binding affinity). A Z score is defined as Z=(x−μ)/σ, where x is a raw score, μ is the mean of the population, and σ is the standard deviation of the population. Molecules with the most negative Z scores represent those with the highest Pin1 binding affinity. The Z′ value for this assay was around 0.70 and was consistent for day-to-day performance, with a coefficient of variation in the range of 4-5%.
A lower value of Ki is indicative of higher association and, accordingly, higher affinity of the substrate to the protein.

[2] = tested on: Pin1 and PML-RARα in NB4 cells; assay: immunoblot of Pin1 and PML-RARα in APL NB4 cells; assay type: cell-based, human; settings: for PML-RARα level in APL cells: 72 hours
Protocol: For immunoprecipitation and immunoblotting in the examples below, cells were polyethylenimine (PEI)- or lipofemamine-transfected with 8 μg of various plasmids, incubated in 10 cm dishes for 24 hours, and subsequently treatment with drugs as needed. […] After centrifugation at 13,000 g for 10 minutes, one tenth of the supernatant was stored as input, and the remainder was incubated 12 hours with M2 Flag agarose (Sigma). After brief centrifugation, immunoprecipitates were collected, extensively washed with the aforementioned lysis buffer twice, suspended in 2×SDS sample buffer (100 mM Tris-HCl, pH 6.8, 4% SDS, 5% β-mercaptoethanol, 20% glycerol, and 0.1% bromphenol blue), boiled for 10 minutes, and subjected to immunoblotting analysis. […] After electrophoresis, gel was transferred to nitrocellulose membranes using a semidry transfer cell. The transblotted membrane was washed twice with Tris-buffered saline containing 0.1% Tween 20 (TBST). After blocking with TBST containing 5% bovine serum albumin (BSA) for 1 hour, the membrane was incubated with the appropriate primary antibody (diluted 1:1000) in 2% BSA-containing TBST at 4° C. overnight. After incubation with the primary antibody, the membrane was washed three times with TBST for a total of 30 minutes followed by incubation with horseradish peroxidase (HRP)-conjugated goat anti-rabbit or anti-mouse IgG (diluted 1:2500) for 1 hour at room temperature. After three extensive washes with TBST for a total of 30 minutes, the immunoblots were visualized by enhanced chemiluminescence.

[3] = tested on: NB4 cells; assay: APL cell differentiation in NB4 cells (Giemsa, FACS CD14/CD11b); assay type: cell-based, human; settings: 72 hours
[4] = tested on: APL cells isolated from hCG-PML-RARα transgenic mice
[5] = cited from earlier work
[6] = tested on: vector control or Rab2A-overexpressing HMLEs; assay: BFA treatment of HMLE cells (ERGIC53 staining, Erk1/2 blots); assay type: cell-based, human; settings: 10 μg/ml BFA
From the text: To elucidate how Rab2A overexpression or its Q58H mutation activates Erk1/2, we first examined whether Rab2A co-localized with Erk1/2. HMLE cells were starved and then stimulated by EGF to induce Erk1/2 phosphorylation. […] Overexpressing Rab2A Q58H at levels similar to the endogenous level also activated and colocalized with Erk1/2 like overexpressing WT Rab2A at 3 times higher levels (FIGS. 45A and 46A). To determine where Rab2A or its Q58H mutant colocalized with Erk1/2 at the perinuclear region, we performed double immunostaining Rab2A and ERGIC53, an ER-Golgi intermediate compartment (ERGIC) marker. Both Rab2A and its Q58H mutant colocalized with Erk1/2 at the ERGIC (FIG. 45B). Thus, overexpressed Rab2A or its Q58H mutant co-localizes with Erk1/2 and promotes Erk1/2 activation at the ERGIC. To examine whether Rab2A's vesicular trafficking function is associated with Erk activation, we used brefeldin A (BFA) to block the trafficking from the ERGIC to ER because BFA dissociates ADP ribosylation factor (ARF) effectors from Golgi and ERGIC membranes, leading to block in both anterograde and retrograde transport.

[7] = tested on: human APL NB4 cells; assay: NB4 cell growth; assay type: cell-based; settings: co-treatment with ATRA
Protocol: (§1) Absorbance was determined at 570 nm.

[8] = tested on: RAR; assay: transactivation of RAR downstream target genes
[9] = tested on: human normal and breast cancer cell lines; assay: cell growth of human normal and breast cancer cell lines; assay type: cell-based
Protocol: as §1
To test this possibility, we chose breast cancer as a model due to the substantial oncogenic role of Pin1 in vitro and in vivo.

[10] = tested on: GST-cyclophilin; assay: chymotrypsin coupled PPlase activity assay, cyclophilin
[11] = target: T1, GST-Pin1; assay: chymotrypsin coupled PPlase activity assay, Pin1; assay type: biochemical
From the text: where Km is the Michaelis constant for the used substrate, S is the initial concentration of the substrate in the assay, and the IC50 value is of the inhibitor.

[12] = target: GST-FKBP12 (Homo sapiens, UniProt P62942); assay: chymotrypsin coupled PPlase activity assay, FKBP12; assay type: biochemical
Chain of GST-FKBP12 (P62942 whole entry): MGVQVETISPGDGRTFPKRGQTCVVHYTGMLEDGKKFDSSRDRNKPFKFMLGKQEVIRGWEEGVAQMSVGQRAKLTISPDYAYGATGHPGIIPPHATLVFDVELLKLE

T1 sequence (Q13526 whole entry): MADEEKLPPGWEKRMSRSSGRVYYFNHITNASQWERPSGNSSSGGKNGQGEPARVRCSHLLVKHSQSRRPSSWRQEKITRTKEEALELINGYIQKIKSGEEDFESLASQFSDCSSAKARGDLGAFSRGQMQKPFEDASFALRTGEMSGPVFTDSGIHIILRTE

Pin1 binding in FP assay [1]: totally inactive
Compound: CC1=C(/C=C/C(C)=C/C=C/C(C)=C/C=O)C(C)(C)CCC1 [retinal]

Compound: CCOC(=O)CN1C(=O)c2ccc3c4c(ccc(c24)C1=O)C(=O)N(CC(=O)OCC)C3=O [PiB]
Pin1 degradation in NB4 cells [2]: inhibited Pin1 without degrading it
PML-RARα level in APL cells [2]: dose-dependently reduced PML-RARα
APL cell differentiation [3]: neither Pin1 inhibitors nor Pin1 KD induced APL cell differentiation

Compound: O=C(O[C@@H]1Cc2c(O)cc(O)cc2O[C@@H]1c1cc(O)c(O)c(O)c1)c1cc(O)c(O)c(O)c1 [EGCG]
condition of treated mice (toxic effects) ([4]; mouse, in vivo): rather sick
PML-RARα in the bone marrow ([4]; same regimens): effectively reduced PML-RARα
spleen weights ([4]; same regimens): nearly at basal levels
Pin1 degradation in NB4 cells [2]: inhibited Pin1 without degrading it
PML-RARα level in APL cells [2]: dose-dependently reduced PML-RARα
APL cell differentiation [3]: neither Pin1 inhibitors nor Pin1 KD induced APL cell differentiation

Compound: Bth-D-phos.Thr-Pip-Nal ([Bth][d(pT)][Pip][Nal]) [pTide]
cell permeability [5]: low cell permeability
binding selectivity ([1]; Pin1 PPlase domain vs WW domain vs FKBP12): selectively binds Pin1 at its PPlase domain and does not bind to the WW domain of Pin1 or to FKBP12

Compound: COc1cc(C)c(/C=C/C(C)=C/C=C/C(C)=C/C(=O)O)c(C)c1C [acitretin]
Pin1 binding in FP assay [1]: moderate binding

Compound: C=C(c1ccc(C(=O)O)cc1)c1cc2c(cc1C)C(C)(C)CCC2(C)C [bexarotene]
Pin1 binding in FP assay [1]: marginal binding; also recorded: less potent than ATRA

Compound: C[C@H]1CCC/C=C/[C@@H]2C[C@H](O)C[C@H]2[C@H](O)/C=C/C(=O)O1 [BFA, brefeldin A]
Erk phosphorylation [6]: did not obviously affect Erk phosphorylation
ERGIC structure (ERGIC53 staining) ([6]; 30 min): ERGIC structures were damaged

Pin1 binding in FP assay [1]: minimal Pin1 binding
Compound: CCCCCCCOc1cc2c(cc1/C(C)=C/c1ccc(C(=O)O)cc1)C(C)(C)CCS2(=O)=O [Ro-415253]
rescue of NB4 cell proliferation suppressed by ATRA [7]: unable to rescue NB4 cell proliferation suppressed by ATRA
restoration of ATRA-mediated Pin1 degradation ([2]; co-treatment with ATRA): unable to restore ATRA-mediated Pin1 degradation
transactivation of RAR downstream target genes [8]: suppresses it
effect on the ability of ATRA to induce Pin1 degradation or inhibit cell growth ([9]; breast cancer cells (T47D)): no obvious effects

Compound: O=C(O)Cc1c[nH]c2ccccc12 [indo-3-acetic acid]
Pin1 binding in FP assay [1]: neither pravastatin nor indo-3-acetic acid demonstrated any binding

Compound: Clc1cccc(C(c2ccc3[nH]cnc3c2)n2ccnc2)c1 (stereo not shown) [liarazole]
combination effect with ATRA on inhibition of cell proliferation ([9]; AU565 or SKBR3 cells): generally additive effects with ATRA

Pin1 binding in FP assay [1]: totally inactive
Compound: CC(=O)OC/C=C(C)/C=C/C=C(C)/C=C/C1=C(C)CCCC1(C)C [retinyl acetate]

Compound: CC1=C(/C=C/C(C)=C/C=C/C(C)=C\C(=O)O)C(C)(C)CCC1 [13cRA, (2Z,4E,6E,8E)-3,7-dimethyl-9-(2,6,6-trimethylcyclohexen-1-yl)nona-2,4,6,8-tetraenoic acid]
inhibition of cyclophilin [10]: did not inhibit
inhibition of PPlase activity of Pin1 [11]: fully inhibited
Ki ([11]; Cheng-Prusoff equation, read-out: Ki from PPlase assay): 2.37 µM
Ki [1]: 1.16 µM
binding to Pin1 in FP assay after longer incubation ([1]; 24 hours incubation vs 0.5 hours): difference in binding between 13cRA and ATRA disappears after a longer incubation
Z score in FP-HTS ([1]; ~8200 compounds screened, competition with pTide): lowest Z score
inhibition of FKBP12 [12]: did not inhibit

Pin1 binding in FP assay [1]: totally inactive
Compound: CC1=C(/C=C/C(C)=C/C=C/C(C)=C/CO)C(C)(C)CCC1 [retinol]

Pin1 binding in FP assay [1]: less potent than ATRA
Compound: CC1=C(/C=C/C(C)=C/C=C/C(C)=C/C(=O)Nc2ccc(O)cc2)C(C)(C)CCC1 [fenretinide]

Pin1 binding in FP assay [1]: moderate binding
Compound: CC1(C)CCC(C)(C)c2cc(NC(=O)c3ccc(C(=O)O)cc3)ccc21 [tamibarotene]
